Test results taken from patent US20050282755A1, “Compositions having antimicrobial activity and uses thereof” (priority 2004, published 2005).
Converted amounts (≈) assume the structure as drawn. Starred links: 1 amine or outer side, 2 acyl side, 3 side chain; linkers in the order of their positions; H or OH if unused. Non-standard residues stand in square brackets, D forms with d. Residues, ends and D or L forms follow the SMILES beside them. *: point of attachment. d(hArg) = N=C(N)NCCCC[C@@H](N)C(=O)O; Ethylenediamine = C(CN[*:2])N[*:1]; Stearoyl = CCCCCCCCCCCCCCCCCC(=O)*; Palmitoyl = CCCCCCCCCCCCCCCC(=O)*; Lauroyl = CCCCCCCCCCCC(=O)*; Decanoyl = CCCCCCCCCC(=O)*; Octanoyl = CCCCCCCC(=O)*; Hexanoyl = CCCCCC(=O)*

Legend:
Format in all cases: cell-based
[1] = system: Staphylococcus aureus ATCC 29213; assay: MIC, NCCLS M7-A6 broth microdilution, cation-adjusted Mueller Hinton broth (Table 9, no superscript); conditions: ATCC 29213
Experimental: (§1) Cation-adjusted Mueller Hinton broth was used in the broth microdilution method. In brief, a log-phase bacterial suspension was used to inoculate wells of a 96-well plate so that the final inoculum for each well contained 5×10^5 to 1×10^6 CFU/milliliter. […] Plates were incubated overnight at 37° C. The lowest concentration of peptide that contained no visible growth as evidenced by a lack of turbidity when compared to the control (no peptide) was determined as the MIC. Unless otherwise noted, MIC values listed in Table 9 utilized this method of MIC determination.

[2] = system: Escherichia coli ATCC 25922; assay: MIC, NCCLS M7-A6 broth microdilution (Table 9, no superscript); conditions: ATCC 25922
Experimental: as §1

[3] = system: Pseudomonas aeruginosa ATCC 27853; assay: as above; conditions: ATCC 27853
Experimental: as §1

Salmonella dublin (Lane) = assay: as above
Experimental: as §1

[4] = system: Staphylococcus epidermidis ATCC 12228; assay: as above; conditions: ATCC 12228
Experimental: as §1

Row | Compound | MIC S. aureus [1] [µg/mL] | MIC E. coli [2] [µg/mL] | MIC P. aeruginosa [3] [µg/mL] | MIC S. dublin (Salmonella dublin (Lane)) [µg/mL] | MIC S. epidermidis [4] [µg/mL]
1 | CCCCCCCCCCCC(=O)N[C@H](CCCCNC(=N)N)C(=O)N[C@H](CO)C(=O)N[C@H](CCCCNC(=N)N)C(=O)N[C@H](Cc1c[nH]c2ccccc12)C(=O)N[C@H](CCCCNC(=N)N)C(=O)N[C@H](CC(=O)O)C(=O)N[C@@H](C(=O)N[C@H](C)C(=O)N[C@H](CCCCNC(=N)N)C(=O)N[C@H](CC(N)=O)C(=O)N[C@H](Cc1ccccc1)C(=O)N[C@H](CCSC)C(=O)N[C@H](CCCCNC(=N)N)C(N)=O)C(C)C [Peptide 159, Lauryl-xsxwxdvaxnfmx-NH2 x = D-homoarginine] (Lauroyl-[d(hArg)][dS][d(hArg)][dW][d(hArg)][dD][dV][dA][d(hArg)][dN][dF][dM][d(hArg)]-NH2) | 8 (≈ 4 µM) | 16 (≈ 7.99 µM) | 32 (≈ 16 µM) | 64 (≈ 32 µM) | 8 (≈ 4 µM)
2 | CCCCCCCCCCCC(=O)N[C@H](C(=O)N[C@@H](CCCNC(=N)N)C(=O)N[C@H](C(=O)N[C@@H](CO)C(=O)N[C@@H](CCCNC(=N)N)C(=O)N[C@H](C(=O)NCC(=O)N[C@@H](CCCNC(=N)N)C(=O)N[C@@H](CO)C(=O)N[C@@H](CCCNC(=N)N)C(=O)N[C@@H](Cc1c[nH]c2ccccc12)C(=O)N[C@@H](CCCNC(=N)N)C(=O)N[C@@H](CC(=O)O)C(=O)N[C@@H](Cc1c[nH]c2ccccc12)C(=O)N[C@@H](CO)C(=O)N[C@@H](CCCNC(=N)N)C(=O)N[C@@H](CC(N)=O)C(=O)N[C@@H](Cc1ccccc1)C(=O)N[C@@H](CCSC)C(=O)N[C@@H](CCCNC(=N)N)C(=O)N[C@@H](CC(C)C)C(=O)N[C@@H](CC(C)C)C(N)=O)[C@@H](C)O)C(C)C)[C@@H](C)O [Peptide 68] (Lauroyl-TRVSRTGRSRWRDWSRNFMRLL-NH2) | 32 (≈ 10.6 µM) | 64 (≈ 21.2 µM) | >64 | 16 (≈ 5.3 µM) | 8 (≈ 2.65 µM)
3 | CCCCCCCCCCCCCCCC(=O)NCCCC[C@@H](NC(=O)[C@@H](CCCNC(=N)N)NC(=O)[C@@H](CC(C)C)NC(=O)[C@@H](Cc1ccccc1)NC(=O)[C@@H](CC(N)=O)NC(=O)[C@@H](CCCNC(=N)N)NC(=O)[C@@H](C)NC(=O)[C@H](NC(=O)[C@@H](CC(=O)O)NC(=O)[C@@H](CCCNC(=N)N)NC(=O)[C@@H](Cc1c[nH]c2ccccc12)NC(=O)[C@@H](CCCNC(=N)N)NC(=O)[C@@H](CO)NC(=O)[C@H](N)CCCNC(=N)N)C(C)C)C(N)=O [Peptide 196, H2N-rsrwrdvarnflrk(Palmitoyl)-NH2] (H-[dR][dS][dR][dW][dR][dD][dV][dA][dR][dN][dF][dL][dR][dK](Palmitoyl)-NH2) | 64 (≈ 30.5 µM) | >64 | >64 | 64 (≈ 30.5 µM) | 32 (≈ 15.3 µM)
4 | CCCCCCCC(=O)NCCCC[C@H](NC(=O)[C@H](CCCNC(=N)N)NC(=O)[C@H](CC(C)C)NC(=O)[C@H](Cc1ccccc1)NC(=O)[C@H](CC(N)=O)NC(=O)[C@H](CCCNC(=N)N)NC(=O)[C@H](C)NC(=O)[C@@H](NC(=O)[C@H](CC(=O)O)NC(=O)[C@H](CCCNC(=N)N)NC(=O)[C@H](Cc1c[nH]c2ccccc12)NC(=O)[C@H](CCCNC(=N)N)NC(=O)[C@H](CO)NC(=O)[C@@H](N)CCCNC(=N)N)C(C)C)C(N)=O [Peptide 179, H2N-RSRWRDVARNFLRK(Octanyl)-NH2] (H-RSRWRDVARNFLRK(Octanoyl)-NH2) | 32 (≈ 16.1 µM) | 32 (≈ 16.1 µM) | 64 (≈ 32.2 µM) | 64 (≈ 32.2 µM) | 8 (≈ 4.03 µM)
5 | CCCCCC(=O)N[C@H](CCCNC(=N)N)C(=O)N[C@H](CO)C(=O)N[C@H](CCCNC(=N)N)C(=O)N[C@H](Cc1c[nH]c2ccccc12)C(=O)N[C@H](CCCNC(=N)N)C(=O)N[C@H](CC(=O)O)C(=O)N[C@@H](C(=O)N[C@H](C)C(=O)N[C@H](CCCNC(=N)N)C(=O)N[C@H](CC(N)=O)C(=O)N[C@H](Cc1ccccc1)C(=O)N[C@H](CCSC)C(=O)N[C@H](CCCNC(=N)N)C(N)=O)C(C)C [Peptide 206, Hexyl-rsrwrdvarnfmr-NH2] (Hexanoyl-[dR][dS][dR][dW][dR][dD][dV][dA][dR][dN][dF][dM][dR]-NH2) | >64 | 64 (≈ 34.6 µM) | >64 | >64 | 32 (≈ 17.3 µM)
6 | CCCCCCCCCCCCCCCCCC(=O)N[C@@H](C(=O)N[C@H](CCCNC(=N)N)C(=O)N[C@@H](C(=O)N[C@H](CO)C(=O)N[C@H](CCCNC(=N)N)C(=O)N[C@@H](C(=O)NCC(=O)N[C@H](CCCNC(=N)N)C(=O)N[C@H](CO)C(=O)N[C@H](CCCNC(=N)N)C(=O)N[C@H](Cc1c[nH]c2ccccc12)C(=O)N[C@H](CCCNC(=N)N)C(=O)N[C@H](CC(=O)O)C(=O)N[C@H](Cc1c[nH]c2ccccc12)C(=O)N[C@H](CO)C(=O)N[C@H](CCCNC(=N)N)C(=O)N[C@H](CC(N)=O)C(=O)N[C@H](Cc1ccccc1)C(=O)N[C@H](CCSC)C(=O)N[C@H](CCCNC(=N)N)C(=O)N[C@H](C)C(=O)N[C@H](C)C(=O)N[C@@H](CCCCNC(C)=O)C(N)=O)[C@H](C)O)C(C)C)[C@H](C)O [Peptide 86, Stearyl-trvsrtgrsrwrdwsrnfmraaK(Ac)-NH2] (Stearoyl-[dT][dR][dV][dS][dR][dT]G[dR][dS][dR][dW][dR][dD][dW][dS][dR][dN][dF][dM][dR][dA][dA]K(Ac)-NH2) |  | >64 | >64 |  | 32 (≈ 10 µM)
7 | CCCCCCCCCCCC(=O)N[C@@H](CO)C(=O)N[C@@H](CCCNC(=N)N)C(=O)N[C@@H](Cc1c[nH]c2ccccc12)C(=O)N[C@@H](CCCNC(=N)N)C(=O)N[C@@H](CC(=O)O)C(=O)N[C@H](C(=O)N[C@@H](C)C(=O)N[C@@H](CCCNC(=N)N)C(=O)N[C@@H](CC(N)=O)C(=O)N[C@@H](Cc1ccccc1)C(=O)N[C@@H](CCSC)C(=O)N[C@@H](CCCNC(=N)N)C(N)=O)C(C)C [Peptide 114, Lauryl-SRWRDVARNFMR-NH2] (Lauroyl-SRWRDVARNFMR-NH2) | 4 (≈ 2.25 µM) |  |  | 4 (≈ 2.25 µM) | 
8 | CCCCCCCCCC(=O)NCCNC(=O)[C@H](CCCNC(=N)N)NC(=O)[C@H](CC(C)C)NC(=O)[C@H](Cc1ccccc1)NC(=O)[C@H](CC(N)=O)NC(=O)[C@H](CCCNC(=N)N)NC(=O)[C@H](C)NC(=O)[C@@H](NC(=O)[C@H](CC(=O)O)NC(=O)[C@H](CCCNC(=N)N)NC(=O)[C@H](Cc1c[nH]c2ccccc12)NC(=O)[C@H](CCCNC(=N)N)NC(=O)[C@H](CO)NC(=O)[C@@H](N)CCCNC(=N)N)C(C)C [Peptide 170, H2N-RSRWRDVARNFLR-Ethylamidodecanyl] (H-RSRWRDVARNFLR-{Ethylenediamine-Decanoyl}; C-terminus assumed) | 2 (≈ 1.04 µM) |  |  | 2 (≈ 1.04 µM) | 
9 | CSCC[C@@H](NC(=O)[C@@H](Cc1ccccc1)NC(=O)[C@@H](CC(N)=O)NC(=O)[C@@H](CCCNC(=N)N)NC(=O)[C@@H](CO)NC(=O)[C@@H](Cc1c[nH]c2ccccc12)NC(=O)[C@@H](CC(=O)O)NC(=O)[C@@H](CCCNC(=N)N)NC(=O)[C@@H](Cc1c[nH]c2ccccc12)NC(=O)[C@@H](CCCNC(=N)N)NC(=O)[C@@H](CO)NC(=O)[C@@H](CCCNC(=N)N)NC(=O)CNC(=O)[C@H](NC(=O)[C@@H](CCCNC(=N)N)NC(=O)[C@@H](CO)NC(=O)[C@H](NC(=O)[C@@H](CCCNC(=N)N)NC(=O)[C@H](NC(C)=O)[C@H](C)O)C(C)C)[C@H](C)O)C(=O)N[C@H](CCCNC(=N)N)C(=O)N[C@H](C)C(=O)N[C@H](C)C(=O)N[C@@H](CCCCNC(C)=O)C(N)=O [Peptide 84, Ac-trvsrtgrsrwrdwsrnfmraaK(Ac)-NH2] (Ac-[dT][dR][dV][dS][dR][dT]G[dR][dS][dR][dW][dR][dD][dW][dS][dR][dN][dF][dM][dR][dA][dA]K(Ac)-NH2) |  | >64 | >64 |  | 32 (≈ 10.8 µM)
10 | CSCC[C@H](NC(=O)[C@H](Cc1ccccc1)NC(=O)[C@H](CC(N)=O)NC(=O)[C@H](CCCNC(=N)N)NC(=O)[C@H](CO)NC(=O)[C@H](Cc1c[nH]c2ccccc12)NC(=O)[C@H](CC(=O)O)NC(=O)[C@H](CCCNC(=N)N)NC(=O)[C@H](Cc1c[nH]c2ccccc12)NC(=O)[C@H](CCCNC(=N)N)NC(=O)[C@H](CO)NC(=O)[C@H](CCCNC(=N)N)NC(=O)CNC(=O)[C@@H](NC(=O)[C@H](CCCNC(=N)N)NC(=O)[C@H](CO)NC(=O)[C@@H](NC(=O)[C@H](CCCNC(=N)N)NC(=O)[C@@H](NC(C)=O)[C@@H](C)O)C(C)C)[C@@H](C)O)C(=O)N[C@@H](CCCNC(=N)N)C(=O)N[C@@H](C)C(=O)N[C@@H](C)C(=O)N[C@@H](CCCCN)C(=O)N[C@@H](CCCCN)C(=O)N[C@@H](CCCCN)C(=O)N[C@@H](CCCCN)C(=O)N[C@@H](CCCCN)C(N)=O [Peptide 6] (Ac-TRVSRTGRSRWRDWSRNFMRAAKKKKK-NH2) | >64 |  |  | >64 | 
11 | CCCCCC(=O)NCCCC[C@@H](NC(=O)[C@@H](CCCNC(=N)N)NC(=O)[C@@H](CC(C)C)NC(=O)[C@@H](Cc1ccccc1)NC(=O)[C@@H](CC(N)=O)NC(=O)[C@@H](CCCNC(=N)N)NC(=O)[C@@H](C)NC(=O)[C@H](NC(=O)[C@@H](CC(=O)O)NC(=O)[C@@H](CCCNC(=N)N)NC(=O)[C@@H](Cc1c[nH]c2ccccc12)NC(=O)[C@@H](CCCNC(=N)N)NC(=O)[C@@H](CO)NC(=O)[C@H](N)CCCNC(=N)N)C(C)C)C(N)=O [Peptide 192, H2N-rsrwrdvarnflrk(Hexanyl)-NH2] (H-[dR][dS][dR][dW][dR][dD][dV][dA][dR][dN][dF][dL][dR][dK](Hexanoyl)-NH2) | >64 |  |  | >64 | 
